Laboratory results from patent publication US9109048B2, “Inhibition of tumor growth” (priority 1998, dated 2015).
Square brackets hold non-standard residues; d marks the D form. Ends that are not written are not given here. Peptide text beside a SMILES is read from it. * marks the point of attachment. Trp(2-Pmc) = Cc1c(C)c(S(=O)(=O)c2[nH]c3ccccc3c2C[C@H](N)C(=O)O)c(C)c2c1OC(C)(C)CC2; Fmoc = O=C(OCC1c2ccccc2-c2ccccc21)*; Acm = CC(=O)NC*

How the values were obtained:
human red blood cells = assay: Hemolytic assay; format: cell-based; set-up: % Hemolysis: dose or concentration left out as unconfirmed; conditions: for EC 50 (toxicity, hemolysis) / EC50: red cells of human
Procedure: The hemolytic activities of the peptides were determined using fresh human red blood cells. 8 ml blood was taken from a healthy person. 4 ml blood was transferred to a polycarbonate tube containing heparin to a final concentration of 10 U/ml, and the remaining 4 ml blood was transferred to a glass tube containing EDTA with final concentration of 15% EDTA. The erythrocytes were isolated from heparin-treated blood by centrifugation in 1500 rpm for 10 min and washed three times with phosphate-buffered saline (PBS) to remove plasma and buffy coat. The cell pellet was resuspended in PBS to make the final volume of 4 ml. The peptide was diluted to a concentration of 2 mg/ml and 0.1 mg/ml. The peptide was further diluted to the concentrations as stated in Table 1. For each tube PBS was added first, then RBCs and peptide solutions. The hematocrit in the blood treated with EDTA was determined after 30 min with Sysmex K-1000, and the resuspended RBCs were diluted into 10% hematocrit. RBCs in PBS (1%) with and without peptides (Table 18) were incubated in a shaker at 37° for 1 hour and then centrifuged at 4000 rpm for 5 min. The supernatant were carefully transferred to new polycarbonate tubes and the absorbance of the supernatant was measured at 540 nm. Baseline hemolysis was hemoglobin released in the presence of PBS, and 100% hemolysis was hemoglobin released in the presence of 0.1% Triton X-100.

[1] = system: Meth A cells (murine sarcoma cell line); assay: Cytotoxicity on Meth A cells, MTT method
Procedure: Peptide solutions (0.1 ml) were added and the plates incubated at 37° C. for 30 minutes, 4 hours or 24 hours. The cytotoxicity was measured using the MTT method (Mosmann et al., J. Immunol. (1986) 136, 2348-2357).
Cells in the growth phase were harvested and washed in fresh medium and injected subcutaneously into the abdominal region of the mice.
The cytotoxic effect of the peptides on different murine and human tumor cells were measured using the MTT method (Mosmann et al., J. Immunol. (1986) 136, 2348-2357).
MTT is a soluble tetrazolium salt yielding a yellow solution when prepared in media or salt solutions lacking phenol red. Dissolved MTT is converted to an insoluble purple formazan by cleavage of the tetrazolium ring by dehydrogenase enzymes. This water insoluble formazan can be solubilized using isopropanol or other solvents and the dissolved material is measured spectrophotometrically. The absorbance was measured as a function of concentration of converted dye.
Cells were maintained in […] medium containing 10% FBS, 1% L-glutamine and 0.1% penicillin and streptomycin. Cells to be used in the assay were grown to confluency, trypsinated and split to single cell suspension, counted and centrifuged at 1500 rpm for 10 min. […][…] of cell suspension was transferred to each well on a 96-well microtiter plate. The cells were stimulated by adding […] of various concentrations of peptides diluted with assay medium to each well. The final concentrations of peptide were for example: 5, 10, 20, 40, 60, 80, 100, and 200 mg/ml. […] As a negative control only medium was added to the cells, and as a positive control (100% killing) 1% triton X-100 was added. Following an incubation period of 4 h., 20 ml MTT dissolved in PBS at a concentration of 5 mg/ml was added to each well, and the plate was incubated further for 2 h. 130 ml of the supernatant were then removed and […] acid alcohol (0.04-0.1 N HCl in isopropanol) added to each well to dissolve the dark blue crystals. The plate was placed on a shaker for 1 h and read spectrophotometrically at 590 nm in a microtiterplate reader using the Softmaxâ program.

[2] = system: Staphylococcus aureus ATCC 25923; assay: MIC (minimum inhibitory concentration) test, microdilution; format: cell-based
Procedure: (§1) The bacterial strains used were: Escherichia coli ATCC 25922 and Staphylococcus aureus ATCC 25923. All strains were stored at −70° C. The bacteria were grown in 2% Bacto Peptone water (Difco 1807-17-4). All tests were performed with bacteria in mid-logarithmic growth phase. Determination of the minimum inhibitory concentration (MIC) of the peptides for bacterial strains were performed in 1% Bacto Peptone water. A standard microdilution technique with an inoculum of 2×10^6 CFU/ml was used. All assays were performed in triplets. Since the peptides are positively charged and therefore could adhere to the plastic wells, we controlled the actual concentration of the peptides in the solution by HPLC. There was no difference between the concentration of the peptides before or after adding the solution to the plastic wells.

[3] = system: Escherichia coli ATCC 25922; assay: as above; format: cell-based
Procedure: as §1

## CSCC[C@@H](NC(=O)[C@@H](CCCNC(=N)N)NC(=O)[C@@H](Cc1c[nH]c2ccccc12)NC(=O)[C@@H](CCC(N)=O)NC(=O)[C@@H](Cc1c[nH]c2ccccc12)NC(=O)[C@@H](CCCNC(=N)N)NC(=O)[C@@H](CCCNC(=N)N)NC(=O)[C@@H](CSCNC(C)=O)NC(=O)[C@@H](CCCCN)NC(=O)[C@H](N)Cc1ccccc1)C(=O)N[C@H](CCCCN)C(=O)N[C@H](CCCCN)C(=O)N[C@H](CC(C)C)C(=O)NCC(=O)N[C@H](C)C(=O)O [Enantio LFB 17-31]
Human red blood cells
  % Hemolysis: 3.05%

## CSCC[C@H](NC(=O)[C@H](CCCNC(=N)N)NC(=O)[C@H](C)NC(=O)[C@H](CCC(N)=O)NC(=O)[C@H](Cc1c(S(=O)(=O)c2c(C)c(C)c3c(c2C)CCC(C)(C)O3)[nH]c2ccccc12)NC(=O)[C@H](CCCNC(=N)N)NC(=O)[C@H](CCCNC(=N)N)NC(=O)[C@H](CSCNC(C)=O)NC(=O)[C@H](CCCCN)NC(=O)[C@H](Cc1ccccc1)NC(=O)OCC1c2ccccc2-c2ccccc21)C(=O)N[C@@H](CCCCN)C(=O)N[C@@H](CCCCN)C(=O)N[C@@H](CC(C)C)C(=O)NCC(=O)N[C@@H](C)C(=O)O [LFB A8 FMOC PMC] (Fmoc-FKC(Acm)RR[Trp(2-Pmc)]QARMKKLGA-OH)
[1]; 4 hours incubation
  concentration effective in killing Meth A cells: 50 µg/mL
[1]; ½ hour incubation
  concentration effective in killing Meth A cells: higher than 100 μg/ml

## CSCC[C@H](NC(=O)[C@H](CCCNC(=N)N)NC(=O)[C@H](Cc1c[nH]c2ccccc12)NC(=O)[C@H](CCC(N)=O)NC(=O)[C@H](Cc1c[nH]c2ccccc12)NC(=O)[C@H](CCCNC(=N)N)NC(=O)[C@H](CCCNC(=N)N)NC(=O)[C@H](CSCNC(C)=O)NC(=O)[C@H](CCCCN)NC(=O)[C@@H](N)CCCCN)C(=O)N[C@@H](CCCCN)C(=O)N[C@@H](CCCCN)C(=O)N[C@@H](CC(C)C)C(=O)NCC(=O)N[C@@H](C)C(=O)O [LFB K1] (H-KKC(Acm)RRWQWRMKKLGA-OH; N-terminus assumed)
[2]; ATCC 25923
  MIC S. aureus: 100 µg/mL
[2]; Table 1, value in parentheses
  Minimum inhibitory concentration (MIC) S. aureus ATCC 25923: 50 µM
[3]; ATCC 25922
  MIC E. coli: 60 µg/mL
[3]; Table 1, value in parentheses
  Minimum inhibitory concentration (MIC) E. coli ATCC 25922: 30 µM

## CC[C@H](C)[C@H](NC(=O)[C@H](CO)NC(=O)[C@@H]1CCCN1C(=O)[C@H](C)NC(=O)CNC(=O)[C@H](CC(C)C)NC(=O)[C@H](CCCCN)NC(=O)[C@H](CCCNC(=N)N)NC(=O)[C@H](CCSC)NC(=O)[C@H](CCCNC(=N)N)NC(=O)[C@H](CCCNC(=N)N)NC(=O)[C@H](CCC(N)=O)NC(=O)[C@H](Cc1c[nH]c2ccccc12)NC(=O)[C@H](CCC(N)=O)NC(=O)[C@H](Cc1ccc(O)cc1)NC(=O)[C@H](CSCNC(C)=O)NC(=O)[C@H](CCCCN)NC(=O)[C@@H](N)CO)C(=O)N[C@H](C(=O)N[C@@H](CSCNC(C)=O)C(=O)N[C@H](C(=O)N[C@@H](CCCNC(=N)N)C(=O)N[C@@H](CCCNC(=N)N)C(=O)N[C@H](C(=O)N[C@@H](CO)C(=O)O)[C@@H](C)O)C(C)C)[C@@H](C)O [LFC (17-41)] (H-SKC(Acm)YQWQRRMRKLGAPSITC(Acm)VRRTS-OH)
[2]; ATCC 25923
  Minimum inhibitory concentration (MIC) S. aureus ATCC 25923: 1000 µg/mL
[3]; ATCC 25922
  Minimum inhibitory concentration (MIC) E. coli ATCC 25922: 750 µg/mL

## CSCC[C@H](NC(=O)[C@H](CCCCN)NC(=O)[C@H](CCCCN)NC(=O)[C@H](CC(C)C)NC(=O)CNC(=O)[C@H](C)N)C(=O)N[C@@H](CCCNC(=N)N)C(=O)N[C@@H](Cc1c[nH]c2ccccc12)C(=O)N[C@@H](CCC(N)=O)C(=O)N[C@@H](Cc1c[nH]c2ccccc12)C(=O)N[C@@H](CCCNC(=N)N)C(=O)N[C@@H](CCCNC(=N)N)C(=O)N[C@@H](CSCNC(C)=O)C(=O)N[C@@H](CCCCN)C(=O)N[C@@H](Cc1ccccc1)C(=O)O [Retro LFB 17-31]
Human red blood cells
  % Hemolysis: 2.01%

## CSCC[C@@H](NC(=O)[C@@H](CCCCN)NC(=O)[C@@H](CCCCN)NC(=O)[C@@H](CC(C)C)NC(=O)CNC(=O)[C@@H](C)N)C(=O)N[C@H](CCCNC(=N)N)C(=O)N[C@H](Cc1c[nH]c2ccccc12)C(=O)N[C@H](CCC(N)=O)C(=O)N[C@H](Cc1c[nH]c2ccccc12)C(=O)N[C@H](CCCNC(=N)N)C(=O)N[C@H](CCCNC(=N)N)C(=O)N[C@H](CSCNC(C)=O)C(=O)N[C@H](CCCCN)C(=O)N[C@H](Cc1ccccc1)C(=O)O [Retro-Enantio LFB 17-31]
Human red blood cells
  % Hemolysis: 3.31%

## FKARRWAWRMKKLGA-OH [LFB A3, 7]
Human red blood cells
  EC 50 (toxicity, hemolysis): >1000 µg/mL

## GIGKFLKKARKFGRAWVRILKKG [Tosmag W16]
[2]; ATCC 25923
  MIC S. aureus: 5 µg/mL
[3]; ATCC 25922
  MIC E. coli: 10 µg/mL

## GIGKFLKKARKWGRAWVRILKKG [Tosmag W12,16]
[2]; ATCC 25923
  MIC S. aureus: 10 µg/mL
[3]; ATCC 25922
  MIC E. coli: 5 µg/mL

## GIGKFWHWAKKFGKAFVGEIMNS [Mag 2 W 6,8]
[2]; ATCC 25923
  MIC S. aureus: >100 µg/mL
[3]; ATCC 25922
  MIC E. coli: >100 µg/mL

## PAIRKAFRWAWRMLKKAA [LFB 14-31A2,6,10,17F7I3K16L14R4]
[2]; Table 19
  Mic S. Aureus: 2/4
[3]; Table 19
  Mic E-coli: 2/4

## PAWFKARRWAWRMLKKAA-OH [LFB 14-31 A2,6,10,17 K16L14]
[2]; ATCC 25923
  MIC S. aureus: 4.4 µM
[2]; Table 15
  MIC S. aureus: 10.0 µg/mL
[3]; ATCC 25922
  MIC E. coli: 4.4 µM
[3]; Table 15
  MIC E. coli: 10.0 µg/mL
Human red blood cells
  EC50: > 440 µM
  EC 50 (toxicity, hemolysis): >1000 µg/mL

## PAWRKAFRWAWRMKKLAA-OH [LFB 14-31 A2,6,10,17F7R4]
[3]; ATCC 25922
  MIC E. coli: 4.4 µM
[3]; Table 8
  MIC E. coli: 10 µg/mL
[3]; Table 15
  MIC E. coli: 10.0 µg/mL
Human red blood cells
  EC50: > 440 µM
  EC 50 (toxicity, hemolysis): >1000 µg/mL

## PAWRKARRWARRMKKLAA-OH [LFB 14-31 A2,6,10,17R4,11]
Human red blood cells
  EC 50 (toxicity, hemolysis): >1000 µg/mL

## PAWRKARRWAWRMKKLAA-OH [LFB 14-31 A2,6,10,17R4]
[2]; ATCC 25923
  MIC S. aureus: 8.8 µM
[2]; Table 8
  MIC S. aureus: 20 µg/mL
[2]; Table 15
  MIC S. aureus: 20.0 µg/mL
[3]; ATCC 25922
  MIC E. coli: 13.1 µM
[3]; Table 8
  MIC E. coli: 30 µg/mL
[3]; Table 15
  MIC E. coli: 30.0 µg/mL
Human red blood cells
  EC 50 (toxicity, hemolysis): >1000 µg/mL

## RRWQWRMKKLGA-OH [LFB 20-31]
[2]; ATCC 25923
  MIC S. aureus: 200 µg/mL
[2]; Table 1, value in parentheses
  Minimum inhibitory concentration (MIC) S. aureus ATCC 25923: 124 µM
[3]; ATCC 25922
  MIC E. coli: 100 µg/mL
[3]; Table 1, value in parentheses
  Minimum inhibitory concentration (MIC) E. coli ATCC 25922: 62 µM

## YRAWRWAWRWR-NH2 [LFM 17-27 A7R2,8,9W3,4,10Y1 NH2, TYR-ARG-ALA-TRP-ARG-TRP-ALA-TRP-ARG-TRP-ARG-CONH2]
[2]; ATCC 25923
  MIC S. aureus: 2.5 µg/mL
[3]; ATCC 25922
  MIC E. coli: 10 µg/mL

## YRWARWWRR-NH2 [LFM 17-25 A4R2,8,9W3,7Y1NH2]
[3]; ATCC 25922
  MIC E. coli: 7.0 µM
[3]; Table 12
  MIC E. coli: 10 µg/mL
[3]; Table 15
  MIC E. coli: 10.0 µg/mL
Human red blood cells
  EC50: > 697 µM
  EC 50 (toxicity, hemolysis): >1000 µg/mL
